Laboratory results published in patent publication US12077537B2 (Gilead Sciences, Inc., priority 2020, dated 2024).

What follows are compounds tested on HIV-IIIb (assay: Antiviral assay in MT4 cells). Settings: Human immunodeficiency virus 1, MT4, 120 h; MT-4 cells mixed with HIV-IIIb at m.o.i. 0.003; 5 days at 37° C.; CellTiter-Glo luminescence; 50% decrease in signal, a measure of HIV-1 replication.
Assay type: cell-based
Method in brief: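 MT-4 cells were infected with HIV-IIIb at m.o.i. 0.003 for 1 hour, then added to 3-fold serially diluted compound (10 concentrations, quadruplicate) in medium with 10% FBS. After 5 days at 37° C, cell viability was read by CellTiter-Glo chemiluminescence.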

| Compound | EC50 [nM] |
| --- | --- |
| CN(C)C1CCN(c2nc3nc([C@H](Cc4cc(F)cc(F)c4)NC(=O)Cn4nc(C(F)(F)F)c5c4C(F)(F)[C@@H]4C[C@H]54)c(-c4cccc5c(NS(C)(=O)=O)nn(C)c45)cc3s2)CC1 [Example 66, 2-((3bS,4aR)-5,5-difluoro-3-(trifluoromethyl)-3b,4,4a,5-tetrahydro-1H-cyclopropa[3,4]cyclopenta[1,2-c]pyrazol-1-yl)-N—((S)-2-(3,5-difluorophenyl)-1-(2-(4-(dimethylamino)piperidin-1-yl)-6-(1-methyl-3-(methylsulfonamido)-1H-indazol-7-yl)thiazolo[4,5-b]pyridin-5-yl)ethyl)acetamide] | 22.4 |
| Cn1nc(NS(C)(=O)=O)c2cccc(-c3cc4scnc4nc3C(Cc3cc(F)cc(F)c3)NC(=O)Cn3nc(C(F)(F)F)c4c3C(F)(F)[C@@H]3C[C@H]43)c21 (stereo partly drawn) [Compound 129, 2-((3bS,4aR)-5,5-difluoro-3-(trifluoromethyl)-3b,4,4a,5-tetrahydro-1H-cyclopropa[3,4]cyclopenta[1,2-c]pyrazol-1-yl)-N-(2-(3,5-difluorophenyl)-1-(6-(1-methyl-3-(methylsulfonamido)-1H-indazol-7-yl)thiazolo[4,5-b]pyridin-5-yl)ethyl)acetamide] | 16.9 |
| NC(=O)c1cc(-c2cc3sc(NC4COC4)nc3nc2[C@H](Cc2cc(F)cc(F)c2)NC(=O)Cn2nc(C(F)F)c3c2C(F)(F)CCC3(F)F)ccc1F [Compound 10, (S)-5-(5-(1-(2-(3-(difluoromethyl)-4,4,7,7-tetrafluoro-4,5,6,7-tetrahydro-1H-indazol-1-yl)acetamido)-2-(3,5-difluorophenyl)ethyl)-2-(oxetan-3-ylamino)thiazolo[4,5-b]pyridin-6-yl)-2-fluorobenzamide] | 384 |
| Cc1c(-c2cc3sc(NCC(C)(C)O)nc3nc2[C@H](Cc2cc(F)cc(F)c2)NC(=O)Cn2nc(C(F)(F)F)c3c2C(F)(F)[C@@H]2C[C@H]32)ccc2n[nH]c(=O)n12 [Compound 54, 2-((3bS,4aR)-5,5-difluoro-3-(trifluoromethyl)-3b,4,4a,5-tetrahydro-1H-cyclopropa[3,4]cyclopenta[1,2-c]pyrazol-1-yl)-N—((S)-2-(3,5-difluorophenyl)-1-(2-((2-hydroxy-2-methylpropyl)amino)-6-(5-methyl-3-oxo-2,3-dihydro-[1,2,4]triazolo[4,3-a]pyridin-6-yl)thiazolo[4,5-b]pyridin-5-yl)ethyl)acetamide] | 26.2 |
| CC(C)(C)OC(=O)N1CCN(c2ccc(-c3nc4nc([C@H](Cc5cc(F)cc(F)c5)NC(=O)Cn5nc(C(F)(F)F)c6c5C(F)(F)[C@@H]5C[C@H]65)c(-c5ccc6c(c5)C(=O)NC6)cc4s3)cc2)CC1 [Compound 145, tert-butyl 4-(4-(5-((S)-1-(2-((3bS,4aR)-5,5-difluoro-3-(trifluoromethyl)-3b,4,4a,5-tetrahydro-1H-cyclopropa[3,4]cyclopenta[1,2-c]pyrazol-1-yl)acetamido)-2-(3,5-difluorophenyl)ethyl)-6-(3-oxoisoindolin-5-yl)thiazolo[4,5-b]pyridin-2-yl)phenyl)piperazine-1-carboxylate] | 370 |
| Cn1nc(NS(C)(=O)=O)c2cccc(-c3cc4sc(N5CCN(C(=O)C(C)(C)N)CC5)nc4nc3[C@H](Cc3cc(F)cc(F)c3)NC(=O)Cn3nc(C(F)(F)F)c4c3C(F)(F)[C@@H]3C[C@H]43)c21 [Example 83, N—((S)-1-(2-(4-(2-amino-2-methylpropanoyl)piperazin-1-yl)-6-(1-methyl-3-(methylsulfonamido)-1H-indazol-7-yl)thiazolo[4,5-b]pyridin-5-yl)-2-(3,5-difluorophenyl)ethyl)-2-((3bS,4aR)-5,5-difluoro-3-(trifluoromethyl)-3b,4,4a,5-tetrahydro-1H-cyclopropa[3,4]cyclopenta[1,2-c]pyrazol-1-yl)acetamide] | 52.3 |
| Cn1nc(NS(C)(=O)=O)c2c(Cl)ccc(-c3cc4c(nc3[C@H](Cc3cc(F)cc(F)c3)NC(=O)Cn3nc(C(F)F)c5c3C(F)(F)[C@@H]3C[C@H]53)CCC(=O)N4)c21 [Compound 136, N—((S)-1-(3-(4-chloro-1-methyl-3-(methylsulfonamido)-1H-indazol-7-yl)-6-oxo-5,6,7,8-tetrahydro-1,5-naphthyridin-2-yl)-2-(3,5-difluorophenyl)ethyl)-2-((3bS,4aR)-3-(difluoromethyl)-5,5-difluoro-3b,4,4a,5-tetrahydro-1H-cyclopropa[3,4]cyclopenta[1,2-c]pyrazol-1-yl)acetamide] | 4.3 |
| NC(=O)c1cc(-c2cc3sc(N4CCN(c5ccncc5)CC4)nc3nc2[C@H](Cc2cc(F)cc(F)c2)NC(=O)Cn2nc(C(F)F)c3c2C2CC2CC3)ccc1F (some centres unmarked) [Compound 47] | 29.3 |
| CN(C)C1CN(c2nc3nc([C@H](Cc4cc(F)cc(F)c4)NC(=O)Cn4nc(C(F)(F)F)c5c4C(F)(F)[C@@H]4C[C@H]54)c(-c4cccc5c(NS(C)(=O)=O)nn(C)c45)cc3s2)C1 [Compound 150, 2-((3bS,4aR)-5,5-difluoro-3-(trifluoromethyl)-3b,4,4a,5-tetrahydro-1H-cyclopropa[3,4]cyclopenta[1,2-c]pyrazol-1-yl)-N—((S)-2-(3,5-difluorophenyl)-1-(2-(3-(dimethylamino)azetidin-1-yl)-6-(1-methyl-3-(methylsulfonamido)-1H-indazol-7-yl)thiazolo[4,5-b]pyridin-5-yl)ethyl)acetamide] | 8 |
| CC(CN(C)C)Nc1nc2nc([C@H](Cc3cc(F)cc(F)c3)NC(=O)Cn3nc(C(F)(F)F)c4c3C(F)(F)[C@@H]3C[C@H]43)c(-c3cccc4c(NS(C)(=O)=O)nn(C)c34)cc2s1 (stereo partly drawn) [Example 67, 2-((3bS,4aR)-5,5-difluoro-3-(trifluoromethyl)-3b,4,4a,5-tetrahydro-1H-cyclopropa[3,4]cyclopenta[1,2-c]pyrazol-1-yl)-N-((1S)-2-(3,5-difluorophenyl)-1-(2-((1-(dimethylamino)propan-2-yl)amino)-6-(1-methyl-3-(methylsulfonamido)-1H-indazol-7-yl)thiazolo[4,5-b]pyridin-5-yl)ethyl)acetamide] | 27.3 |

More lines, now with the values ahead:

| EC50 [nM] | Compound |
| --- | --- |
| 24.8 | Cn1nc(NS(C)(=O)=O)c2cccc(-c3cc4sc(N5CCC6(CC5)CNC(=O)O6)nc4nc3[C@H](Cc3cc(F)cc(F)c3)NC(=O)Cn3nc(C(F)(F)F)c4c3C(F)(F)[C@@H]3C[C@H]43)c21 [Example 80, 2-((3bS,4aR)-5,5-difluoro-3-(trifluoromethyl)-3b,4,4a,5-tetrahydro-1H-cyclopropa[3,4]cyclopenta[1,2-c]pyrazol-1-yl)-N—((S)-2-(3,5-difluorophenyl)-1-(6-(1-methyl-3-(methylsulfonamido)-1H-indazol-7-yl)-2-(2-oxo-1-oxa-3,8-diazaspiro[4.5]decan-8-yl)thiazolo[4,5-b]pyridin-5-yl)ethyl)acetamide] |
| 589 | NC(=O)c1cc(-c2cc3nc(O)oc3nc2[C@H](Cc2cc(F)cc(F)c2)NC(=O)Cn2nc(C(F)(F)F)c3c2C(F)(F)[C@@H]2C[C@H]32)ccc1F [Example 114, 5-(5-((S)-1-(2-((3bS,4aR)-5,5-difluoro-3-(trifluoromethyl)-3b,4,4a,5-tetrahydro-1H-cyclopropa[3,4]cyclopenta[1,2-c]pyrazol-1-yl)acetamido)-2-(3,5-difluorophenyl)ethyl)-2-hydroxyoxazolo[5,4-b]pyridin-6-yl)-2-fluorobenzamide] |
| 29700 | Cc1[nH]c2ccccc2c1CC(=O)N[C@@H](Cc1ccccc1)c1nc2ccccc2n1-c1ccccc1 [Compound 2, (S)-2-(2-methyl-1H-indol-3-yl)-N-(2-phenyl-1-(1-phenyl-1H-benzo[d]imidazol-2-yl)ethyl)acetamide] |
| 81.2 | Cn1nc(NS(C)(=O)=O)c2cccc(-c3cc4[nH]c(-c5ccccc5)nc4nc3[C@H](Cc3cc(F)cc(F)c3)NC(=O)Cn3nc(C(F)(F)F)c4c3C(F)(F)[C@@H]3C[C@H]43)c21 [Example 94, 2-((3bS,4aR)-5,5-difluoro-3-(trifluoromethyl)-3b,4,4a,5-tetrahydro-1H-cyclopropa[3,4]cyclopenta[1,2-c]pyrazol-1-yl)-N—((S)-2-(3,5-difluorophenyl)-1-(6-(1-methyl-3-(methylsulfonamido)-1H-indazol-7-yl)-2-phenyl-1H-imidazo[4,5-b]pyridin-5-yl)ethyl)acetamide] |
| 111 | NC(=O)c1cc(-c2cc3sc(N4CCN(c5cncnc5)CC4)nc3nc2[C@H](Cc2cc(F)cc(F)c2)NC(=O)Cn2nc(C(F)(F)F)c3c2C(F)(F)[C@@H]2C[C@H]32)ccc1F [Compound 25, 5-(5-((S)-1-(2-((3bS,4aR)-5,5-difluoro-3-(trifluoromethyl)-3b,4,4a,5-tetrahydro-1H-cyclopropa[3,4]cyclopenta[1,2-c]pyrazol-1-yl)acetamido)-2-(3,5-difluorophenyl)ethyl)-2-(4-(pyrimidin-5-yl)piperazin-1-yl)thiazolo[4,5-b]pyridin-6-yl)-2-fluorobenzamide] |
| 5.9 | COCc1nc2nc([C@H](Cc3cc(F)cc(F)c3)NC(=O)Cn3nc(C(F)F)c4c3C(F)(F)[C@@H]3C[C@H]43)c(-c3ccc(Cl)c4c(N)nn(C)c34)cc2[nH]1 [Example 103, N—((S)-1-(6-(3-amino-4-chloro-1-methyl-1H-indazol-7-yl)-2-(methoxymethyl)-1H-imidazo[4,5-b]pyridin-5-yl)-2-(3,5-difluorophenyl)ethyl)-2-((3bS,4aR)-3-(difluoromethyl)-5,5-difluoro-3b,4,4a,5-tetrahydro-1H-cyclopropa[3,4]cyclopenta[1,2-c]pyrazol-1-yl)acetamide] |
| 106 | NC(=O)c1cc(-c2cc3sc(-c4cn[nH]c4)nc3nc2[C@H](Cc2cc(F)cc(F)c2)NC(=O)Cn2nc(C(F)(F)F)c3c2C(F)(F)[C@@H]2C[C@H]32)ccc1F [Compound 149, 5-(5-((S)-1-(2-((3bS,4aR)-5,5-difluoro-3-(trifluoromethyl)-3b,4,4a,5-tetrahydro-1H-cyclopropa[3,4]cyclopenta[1,2-c]pyrazol-1-yl)acetamido)-2-(3,5-difluorophenyl)ethyl)-2-(1H-pyrazol-4-yl)thiazolo[4,5-b]pyridin-6-yl)-2-fluorobenzamide] |
